From ChEMBL document CHEMBL6103570, “An endoplasmic reticulum and lipid droplets dual-localized strategy to develop small molecular photosensitizers that induce ferroptosis during photodynamic therapy” (Eur J Med Chem, 2025)
The source made the active and inactive calls. The calls are words filed in the database; no cut-off is given here.

Legend:
[1] = Phototoxicity in human MDA-MB-231 cells assessed as cell viability preincubated for 24 hrs followed by white light irradiation at 20 mW/cm2 for 10 mins and measured after 24 hrs by MTT assay; assay type: functional, cell-based; details: MDA-MB-231, light or radiation study
[2] = Phototoxicity in mouse 4T1 cells assessed as cell viability preincubated for 24 hrs followed by white light irradiation at 20 mW/cm2 for 10 mins and measured after 24 hrs by MTT assay; assay type: functional, cell-based; details: 4T1, light or radiation study
[3] = Phototoxicity in human MCF7 cells assessed as cell viability preincubated for 24 hrs followed by white light irradiation at 20 mW/cm2 for 10 mins and measured after 24 hrs by MTT assay; assay type: functional, cell-based; details: MCF7, light or radiation study
[4] = Phototoxicity in human Bcap37 cells assessed as cell viability preincubated for 24 hrs followed by white light irradiation at 20 mW/cm2 for 10 mins and measured after 24 hrs by MTT assay; assay type: functional, cell-based; details: Bcap37, light or radiation study
[5] = Darktoxicity in human MDA-MB-231 cells assessed as cell viability preincubated for 24 hrs followed by incubation under dark condition for 24 hrs by MTT assay; assay type: toxicity, cell-based; details: time 48 hrs
[6] = Darktoxicity in mouse 4T1 cells assessed as cell viability preincubated for 24 hrs followed by incubation under dark condition for 24 hrs by MTT assay; assay type: toxicity, cell-based; details: time 48 hrs
[7] = Darktoxicity in human MCF7 cells assessed as cell viability preincubated for 24 hrs followed by incubation under dark condition for 24 hrs by MTT assay; assay type: toxicity, cell-based; details: time 48 hrs
[8] = Darktoxicity in human Bcap37 cells assessed as cell viability preincubated for 24 hrs followed by incubation under dark condition for 24 hrs by MTT assay; assay type: toxicity, cell-based; details: time 48 hrs
[9] = (§1) Photo selectivity index, ratio of CC50 for darktoxicity in human MDA-MB-231 cells assessed as cell viability preincubated for 24 hrs followed by incubation under dark condition for 24 hrs by MTT assay to IC50 for phototoxicity in human MDA-MB-231 cells assessed as cell viability preincubated for 24 hrs followed by white light irradiation at 20 mW/cm2 for 10 mins and measured after 24 hrs by MTT assay; assay type: toxicity, cell-based; details: read-out: Ratio CC50/IC50
[10] = as §1, with “mouse 4T1” for “human MDA-MB-231”; assay type: toxicity, cell-based; details: read-out: Ratio CC50/IC50
[11] = as §1, with “MCF7” for “MDA-MB-231”; assay type: toxicity, cell-based; details: read-out: Ratio CC50/IC50
[12] = as §1, with “Bcap37” for “MDA-MB-231”; assay type: toxicity, cell-based; details: read-out: Ratio CC50/IC50
[13] = Photosensitizing ability of the compound in EtOH assessed as singlet oxygen quantum yield at 100 nM under 520nm 30 mW/cm2 light irradiation by DPBF reagent based analysis; assay type: functional
[14] = Photosensitizing ability of the compound in NaOH assessed as fluorescence quantum yield; assay type: functional
[15] = Drug localization in endoplasmic reticulum of mouse 4T1 cells assessed as increase in green fluorescence at 2 uM incubated for 12 hrs by confocal scanning microscopy analysis; assay type: ADME, subcellular; details: 4t1, 12 h
[16] = Drug localization in Lipid droplet of mouse 4T1 cells assessed as increase in green fluorescence at 2 uM incubated for 12 hrs by confocal scanning microscopy analysis; assay type: ADME, subcellular; details: 4t1, 12 h
[17] = Drug localization in Lipid droplet of mouse 4T1 cells assessed as increase in green fluorescence by measuring pearson correlation coefficient at 2 uM incubated for 12 hrs by confocal scanning microscopy analysis; assay type: ADME, subcellular; details: 4t1, 12 h
[18] = Drug localization in Lysosome of mouse 4T1 cells assessed as increase in green fluorescence by measuring pearson correlation coefficient at 2 uM incubated for 12 hrs by confocal scanning microscopy analysis; assay type: ADME, subcellular; details: 4t1, 12 h
[19] = Drug localization in mitochondria of mouse 4T1 cells assessed as increase in green fluorescence by measuring pearson correlation coefficient at 2 uM incubated for 12 hrs by confocal scanning microscopy analysis; assay type: ADME; details: 4t1, 12 h
[20] = test system: 4T1; test: (§2) Induction of intracellular ROS generation in mouse 4T1 cells assessed as increase in green fluorescence intensity at 5 to 60 nM incubated in dark for 24 hrs followed by compound removal and measured after 5 mins under 20 mW/cm2H2 white light irradiation by H2-DCFDA staining based fluorescence assay; assay type: functional, cell-based; details: dose 5-60 nM
[21] = test system: 4T1; test: as §2, with “irradiation in presence of NaN3” for “irradiation”; assay type: functional, cell-based; details: dose 5-60 nM
[22] = Potency index, ratio of IC50 for Chlorin e6 to IC50 for test compound for phototoxicity in human MDA-MB-231 cells assessed as cell viability preincubated for 24 hrs followed by white light irradiation at 20 mW/cm2 for 10 mins and measured after 24 hrs by MTT assay; assay type: functional; details: time 48 hrs
[23] = test system: 4T1; test: Antitumor activity against mouse 4T1 cells implanted in mouse model assessed as reduction in tumor growth at 3 mg/kg, IG measured every two days for 15 days by digital caliper method; assay type: functional, organism-based; details: time 15.0 day
[24] = test system: 4T1; test: Induction of ferroptosis in mouse 4T1 cells assessed as cell viability at 20 nM preincubated for 24 hrs followed by white light irradiation at 20 mW/cm2 and measured after 24 hrs in presence of Z-VAD-FMK by MTT assay; assay type: functional, cell-based; details: time 48.0 hrs
[25] = test system: 4T1; test: Induction of ferroptosis in mouse 4T1 cells assessed as cell viability at 20 nM preincubated for 24 hrs followed by white light irradiation at 20 mW/cm2 and measured after 24 hrs in presence of Nec-1 by MTT assay; assay type: functional, cell-based; details: time 48.0 hrs
[26] = test system: 4T1; test: Induction of ferroptosis in mouse 4T1 cells assessed as cell viability at 20 nM preincubated for 24 hrs followed by white light irradiation at 20 mW/cm2 and measured after 24 hrs in presence of 3-MA by MTT assay; assay type: functional, cell-based; details: time 48.0 hrs
[27] = test system: 4T1; test: Induction of ferroptosis in mouse 4T1 cells assessed as cell viability at 20 nM preincubated for 24 hrs followed by white light irradiation at 20 mW/cm2 and measured after 24 hrs in presence of Fer-1 by MTT assay; assay type: functional, cell-based; details: time 48.0 hrs
[28] = test system: 4T1; test: Induction of ferroptosis in mouse 4T1 cells assessed as decrease in intracellular GSH level at 10 nM preincubated in dark condition for 24 hrs followed by 20mW/cm2 white light irradiation for 10 mins and measured after 12 hrs by colorimetric assay; assay type: functional, cell-based; details: time 2170.0 min
[29] = test system: 4T1; test: Induction of ferroptosis in mouse 4T1 cells assessed as increase in MDA level at 10 nM preincubated in dark condition for 24 hrs followed by 20mW/cm2 white light irradiation for 10 mins and measured after 6 hrs by colorimetric assay; assay type: functional, cell-based; details: time 1810.0 min
[30] = test system: 4T1; test: Antitumor activity against mouse 4T1 cells implanted in mouse model assessed as tumor growth inhibition at 3 mg/kg, IG measured every two days for 15 days under 80 mW/cm2 for 15 mins by digital caliper method relative to control; assay type: functional; details: 4T1, po, 360 h, time 15 day, read-out: TGI
[31] = Toxicity in mouse assessed as effect on liver in at 3 mg/kg, IG measured after 15 days by H and E staining based analysis; assay type: organism-based; details: in vivo, po, 360 h, time 15 day
[32] = test system: 4T1; test: Antitumor activity against mouse 4T1 cells implanted in mouse model assessed as reduction in tumor weight at 3 mg/kg, IG measured every two days for 15 days under 80 mW/cm2 for 15 mins by digital caliper method; assay type: functional, organism-based; details: time 15.0 day
[33] = test system: 4T1; test: Antitumor activity against mouse 4T1 cells implanted in mouse model assessed as reduction in metastatic tumor at 3 mg/kg, IG measured every two days for 15 days by digital caliper method; assay type: functional, organism-based; details: time 15.0 day
[34] = Toxicity in mouse assessed as effect on heart in at 3 mg/kg, IG measured after 15 days by H and E staining based analysis; assay type: organism-based; details: in vivo, po, 360 h, time 15 day
[35] = Toxicity in mouse assessed as effect on spleen in at 3 mg/kg, IG measured after 15 days by H and E staining based analysis; assay type: organism-based; details: in vivo, po, 360 h, time 15 day
[36] = Toxicity in mouse assessed as effect on lung in at 3 mg/kg, IG measured after 15 days by H and E staining based analysis; assay type: organism-based; details: in vivo, po, 360 h, time 15 day
[37] = Toxicity in mouse assessed as effect on kidney in at 3 mg/kg, IG measured after 15 days by H and E staining based analysis; assay type: organism-based; details: in vivo, po, 360 h, time 15 day
[38] = test system: 4T1; test: Antitumor activity against mouse 4T1 cells implanted in mouse model assessed as reduction in tumor cells at 3 mg/kg, IG measured every two days for 15 days under 80 mW/cm2 for 15 mins by digital caliper method; assay type: functional, organism-based; details: time 15.0 day
[39] = test system: 4T1; test: Antitumor activity against mouse 4T1 cells implanted in mouse model assessed as infiltration of immune cells at 3 mg/kg, IG measured every two days for 15 days under 80 mW/cm2 for 15 mins by digital caliper method; assay type: functional, organism-based; details: time 15.0 day

Work on C=Cc1c(C)c2cc3nc(c(CC(=O)O)c4[nH]c(cc5nc(cc1[nH]2)C(C)=C5CC)c(C)c4C(=O)O)[C@@H](CCC(=O)O)[C@@H]3C [CHLORIN E6] yielded an IC50 [1] of 1170 nM, an IC50 [2] of 862 nM and an IC50 [3] of 850 nM. The IC50 [4] was 1270 nM, the CC50 at 24 h [5] was greater than 50000 nM and the CC50 at 24 h [6] was greater than 50000 nM. It also gave a CC50 at 24 h [7] greater than 50000 nM, a CC50 at 24 h [8] greater than 50000 nM and a selectivity ratio [9] greater than 43. For the same molecule, the selectivity ratio [10] was greater than 58, the selectivity ratio [11] was greater than 59 and the selectivity ratio [12] was greater than 39.
In the case of COC(=O)c1cc2c3ccccc3n(C)c2c(C2=C3C(C)=C(I)C(C)=[N+]3[B-](F)(F)n3c(C)c(I)c(C)c32)n1, the Activity [13] is reported as 0.78, the Activity [14] is reported as 0.22 and the Drug uptake [15] is reported as “Active”. For the same molecule, the Drug uptake [16] was “Active”, the Activity [17] was 0.93 and the Activity [18] was 0.53. For the same molecule, the Activity [19] was 0.49, the Activity [20] was “Active” and the Activity [21] was “inactive”. For the same molecule, the IC50 [1] was 10 nM, the IC50 [2] was 19 nM and the IC50 [3] was 13 nM. For the same molecule, the IC50 [4] was 11 nM, the CC50 at 24 h [5] was greater than 100000 nM and the CC50 at 24 h [6] was greater than 100000 nM. The CC50 at 24 h [7] was greater than 100000 nM, the CC50 at 24 h [8] was greater than 100000 nM and the selectivity ratio [9] was greater than 9960. For the same molecule, the selectivity ratio [10] was greater than 5290, the selectivity ratio [11] was greater than 7750 and the selectivity ratio [12] was greater than 8830. The “Ratio IC50” value [22] was 38, the Activity [23] was “inactive” and the Activity [24] was “inactive”. The Activity [25] was “inactive”, the Activity [26] was “inactive” and the Activity [27] was “Active”. For the same molecule, the Activity [28] was “Active”, the Activity [29] was “Active” and the inhibition in vivo at 3 mg/kg [30] was 67.6%. The Activity [31] was “Non-toxic”, the Activity [32] was “Active” and the Activity [33] was “Active”. The Activity [34] was “Non-toxic”, the Activity [35] was “Non-toxic” and the Activity [36] was “Non-toxic”. For the same molecule, the Activity [37] was “Non-toxic”, the Activity [38] was “Active” and the Activity [39] was “Active”.
